Assays:
anti-Borrelia IgM serum = assay: Protection of anti-Borrelia IgM in spiked feces by various substances (ELISA), Example 4; details: 33°C for 3 hours; for ELISA OD: concentrations of all cations 0.219M, dilution in ELISA 1/3000
Protocol: (§1) 25 µl of a high titred anti-Borrelia IgM serum obtained from a patient with acute Borreliosis was added to 5 tubes, each containing 50 mg of a fecal sample from a healthy volunteer. Following vortexing for 30 seconds, 500 µl of the normotonic (319 mOsm/L) solutions (i) 1 X PBS (7,7 mM Na2HPO4, 2,99 mM NaH2PO4, 145 mM NaCl), (ii) 64.5 mM zinc gluconate, (iii) 64,5 mM MgCl2, (iv) 64.5 mM magnesium gluconate or (v) 96.9 mM NaCl, the latter four all dissolved in 1/3 X PBS to obtain the same osmolarity as 1 X PBS, i.e. 319 mOsm/L was added to each of the five tubes. Following vortexing for 30 seconds, the tubes were subsequently incubated at 30°C for 5 hours. Thereafter, 250 µl of a protease inhibitor cocktail (see above) was added to each of the 5 tubes. Solid matter was suspended by vortexing for another 30 seconds followed by centrifugation at 13,000 x g for 10 min. The supernatants were stored at -70°C prior to examination or immediately tested in a commercially available anti-Borrelia IgM ELISA. For the purpose of comparison, 25 µl of the anti-Borrelia IgM serum was run in the immunoassay.
50 milligrams of feces and 25 µl of anti-Borrelia IgM serum were incubated at 33°C for 3 hours with each of the substances described in table 2. Following incubation, the fecal samples were processed and the extracts were obtained as described in example 3.

[1] = tested on: anti-Borrelia IgM antibodies; assay: Protection of anti-Borrelia IgM in spiked feces by equimolar zinc compounds (ELISA), Example 5; details: 37°C for 4 hours, zinc concentration = 0.219M; for ELISA OD: dilution in ELISA 1/1450
Protocol: 50 milligrams of feces and 25 µl of anti-Borrelia IgM serum was incubated at 37°C for 4 hours with equimolar concentrations of zinc gluconate, zinc chloride and zinc acetate (zinc concentration = 0.219M).

[2] = tested on: anti-Borrelia IgM antibodies; assay: Long term stability of IgM antibodies extracted from spiked fecal samples, re-analysis in anti-Borrelia IgM ELISA, Example 2; details: extract stored at -70°C for 4 months, incubated 30°C for 5 hours
Protocol: (§2) 50 µl of a high titer anti-Borrelia IgM serum obtained from a patient with acute Borreliosis was added to 3 tubes each containing 50 mg of a fecal sample from a healthy volunteer. Following vortexing for 30 seconds, the tubes were incubated at 30°C for 5 hours in the presence or absence of 150 µl of 10% zinc gluconate (Gluconal® ZN-G; Glucona B.V., Veendam, The Netherlands). Following incubation, 150 µl of a protease inhibitor cocktail (0.2 mM 4-{2-aminoethyl}benzenesulfonylfluoride [Calbiochem], 1 µg of aprotinin [Sigma] per ml, 10 µM leupeptin [Sigma], and 3.25 µM bestatin [Boehringer Mannheim, Indianapolis, USA]) was added. After vortexing, the tubes were centrifuged at 13,000 x g for 10 min. The supernatants were stored at -70°C or immediately tested in a commercially available anti-Borrelia IgM ELISA (IDELA™ Borrelia burgdorferi IgM, DAKO Diagnostics Ltd., Cambridgeshire, UK). For the purpose of comparison, 50 µl of anti-Borrelia IgM serum was run in the immunoassay.
The fecal extracts described in Example 1 were stored at -70°C for 4 months, and then re-analyzed in the anti-Borrelia IgM ELISA to check the long term stability of the antibodies stored in the presence or absence of 10% zinc gluconate.

anti-Borrelia IgM = assay: Effect of normotonic (319 mOsm/L) solutions on degradation of anti-Borrelia IgM in spiked feces, Example 3
Protocol: as §1, with “immunoassay. […]” for “immunoassay.”

[3] = tested on: anti-Borrelia IgM antibodies; assay: Inhibition of degradation of anti-Borrelia IgM in spiked fecal samples (anti-Borrelia IgM ELISA), Example 1; details: for Initial ELISA, O.D.: feces plus anti-Borrelia IgM serum plus 10% zinc gluconate, 30°C for 5 hours
Protocol: In example numbers 1-5, fecal samples are spiked with a single analyte of interest, i.e. a predetermined amount of a high titered anti-Borrelia IgM serum is added to fecal samples in order to determine the extent to which the protective solution of the present invention prevents the degradation of the particular analyte added.
as §2
The results are given in figure 4, Y-axis: ELISA results (O.D. value); X-axis: F+S; feces plus anti-Borrelia IgM serum incubated at 30°C or on ice for 5 hours, F+S+ZG; feces plus anti-Borrelia IgM serum plus zinc gluconate incubated at 30°C for 5 hours. […]

N=C(NCCCCCCNC(=N)NC(=N)Nc1ccc(Cl)cc1)NC(=N)Nc1ccc(Cl)cc1 [Chlorhexidine gluconate]
ELISA OD (anti-Borrelia IgM serum): 0.003 OD

O=C([O-])[C@H](O)[C@@H](O)[C@H](O)[C@H](O)CO.[Na+] [Sodium gluconate]
ELISA OD (anti-Borrelia IgM serum): 0.087 OD

Copper acetate
ELISA OD (anti-Borrelia IgM serum): 0.042 OD

Copper sulphate
ELISA OD (anti-Borrelia IgM serum): 0.018 OD

Manganese chlonde
ELISA OD (anti-Borrelia IgM serum): 0.184 OD

Sodium chloride
ELISA OD (anti-Borrelia IgM serum): 0.043 OD

Zinc acetate [reference compound]
ELISA OD [1]: 0.281 OD

Zinc chloride [reference compound]
ELISA OD [1]: 0.011 OD

zinc gluconate
protection among the substances tested (Table 2) (anti-Borrelia IgM serum; cations 0.219M): gives the best protection | ELISA OD (anti-Borrelia IgM serum): 0.360 OD | ELISA O.D. after 4 months ([2]; sample dilution 1/60): 2.48 O.D. | ELISA O.D. after 4 months ([2]; sample dilution 1/180): 2.40 O.D. | ELISA O.D. after 4 months ([2]; sample dilution 1/540): 1.75 O.D. | inhibition of degradation of anti-Borrelia IgM (Figure 5) (anti-Borrelia IgM; 64.5 mM in 1/3 X PBS, normotonic (319 mOsm/l), 30°C for 5 hours in feces): substantially inhibits the degradation | efficiency in conferring protection among the examined compounds (Figure 5) (anti-Borrelia IgM; compared with normotonic PBS, MgCl2, magnesium gluconate, NaCl, 30°C for 5 hours): the most efficient | protection of anti-Borrelia IgM antibodies from degradation (Table 3) [1]: significantly protects | ELISA OD [1]: 0.910 OD | capacity of the IgA molecules to bind antigen (CTB) (anti-CTB IgA): preserved | inhibition of degradation of IgA (figure 6) (anti-CTB IgA): significantly inhibit the degradation | inhibition of degradation of anti-Borrelia IgM antibodies (figure 4) ([3]; 10% solution, fecal samples at 30°C for 5 hours): substantially inhibits the degradation | Initial ELISA, O.D. ([3]; sample dilution 1/60): 2.59 O.D. | Initial ELISA, O.D. ([3]; sample dilution 1/180): 2.57 O.D. | Initial ELISA, O.D. ([3]; sample dilution 1/540): 2.08 O.D.

Source: patent publication EP1029246B1, “A METHOD AND DEVICE FOR PREVENTING IMMUNOGLOBULIN DEGRADATION IN EXTERNAL SECRETIONS” (priority 1997, dated 1999)
